Test system: souris
Assay: Acute toxicity in the mouse
Type: in vivo
Conditions: comparison of composé (Ia) and Méquitazine

Row | SMILES | toxicité aiguë
1 | c1ccc2c(c1)Sc1ccccc1N2CC1CN2CCC1CC2 (racemic) [Méquitazine racémique, [(aza-1 bicyclo(2,2,2)octyl-3)méthyl]-10 10H-phénothiazine] | sensiblement identiques
2 | c1ccc2c(c1)Sc1ccccc1N2C[C@@H]1CN2CCC1CC2 [Composé (Ia), [(aza-1 bicyclo(2,2,2)octyl-3 (S))méthyl]-10 10H-phénothiazine] | sensiblement identiques

— patent EP0089860A1, “Levogyrous isomer of mequitazine, process for its preparation and pharmaceutical preparations containing it” (priority 1982, dated 1983)
